Experiment [1] has as its target T1, Tyrosine-protein kinase Mer (Homo sapiens, UniProt Q12866).
T1 sequence (Q12866 whole entry): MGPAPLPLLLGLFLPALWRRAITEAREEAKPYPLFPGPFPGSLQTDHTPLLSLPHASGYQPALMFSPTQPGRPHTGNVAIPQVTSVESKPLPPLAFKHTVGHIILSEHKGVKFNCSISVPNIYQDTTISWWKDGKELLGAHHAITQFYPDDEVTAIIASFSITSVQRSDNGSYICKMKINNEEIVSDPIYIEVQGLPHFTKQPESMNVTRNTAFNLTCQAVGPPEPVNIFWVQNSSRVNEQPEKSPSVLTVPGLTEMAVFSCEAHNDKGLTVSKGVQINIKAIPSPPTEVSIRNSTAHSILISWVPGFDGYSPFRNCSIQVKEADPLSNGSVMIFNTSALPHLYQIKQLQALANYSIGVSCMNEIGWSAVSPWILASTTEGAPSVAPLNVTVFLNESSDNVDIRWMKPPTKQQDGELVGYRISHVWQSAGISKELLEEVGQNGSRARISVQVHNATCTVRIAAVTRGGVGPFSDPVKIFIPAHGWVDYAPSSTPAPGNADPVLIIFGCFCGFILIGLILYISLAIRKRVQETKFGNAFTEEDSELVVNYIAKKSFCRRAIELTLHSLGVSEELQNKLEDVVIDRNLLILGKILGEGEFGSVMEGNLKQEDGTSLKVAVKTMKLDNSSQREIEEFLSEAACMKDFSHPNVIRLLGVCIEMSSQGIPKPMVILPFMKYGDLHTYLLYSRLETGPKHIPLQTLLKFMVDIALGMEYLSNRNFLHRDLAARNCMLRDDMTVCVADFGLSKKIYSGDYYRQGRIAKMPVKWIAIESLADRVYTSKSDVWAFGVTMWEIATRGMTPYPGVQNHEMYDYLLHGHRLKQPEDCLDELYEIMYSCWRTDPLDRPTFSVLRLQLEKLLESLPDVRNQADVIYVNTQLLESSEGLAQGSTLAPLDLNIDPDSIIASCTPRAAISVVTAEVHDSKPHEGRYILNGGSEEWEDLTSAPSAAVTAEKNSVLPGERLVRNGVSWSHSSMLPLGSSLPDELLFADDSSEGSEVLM
Nature of the experiment: Inhibition of Mer (unknown origin) by cell free assay.

In experiment [2] the target is T2, Tyrosine-protein kinase receptor UFO (Mus musculus, UniProt Q00993).
T2 sequence (Q00993 whole entry): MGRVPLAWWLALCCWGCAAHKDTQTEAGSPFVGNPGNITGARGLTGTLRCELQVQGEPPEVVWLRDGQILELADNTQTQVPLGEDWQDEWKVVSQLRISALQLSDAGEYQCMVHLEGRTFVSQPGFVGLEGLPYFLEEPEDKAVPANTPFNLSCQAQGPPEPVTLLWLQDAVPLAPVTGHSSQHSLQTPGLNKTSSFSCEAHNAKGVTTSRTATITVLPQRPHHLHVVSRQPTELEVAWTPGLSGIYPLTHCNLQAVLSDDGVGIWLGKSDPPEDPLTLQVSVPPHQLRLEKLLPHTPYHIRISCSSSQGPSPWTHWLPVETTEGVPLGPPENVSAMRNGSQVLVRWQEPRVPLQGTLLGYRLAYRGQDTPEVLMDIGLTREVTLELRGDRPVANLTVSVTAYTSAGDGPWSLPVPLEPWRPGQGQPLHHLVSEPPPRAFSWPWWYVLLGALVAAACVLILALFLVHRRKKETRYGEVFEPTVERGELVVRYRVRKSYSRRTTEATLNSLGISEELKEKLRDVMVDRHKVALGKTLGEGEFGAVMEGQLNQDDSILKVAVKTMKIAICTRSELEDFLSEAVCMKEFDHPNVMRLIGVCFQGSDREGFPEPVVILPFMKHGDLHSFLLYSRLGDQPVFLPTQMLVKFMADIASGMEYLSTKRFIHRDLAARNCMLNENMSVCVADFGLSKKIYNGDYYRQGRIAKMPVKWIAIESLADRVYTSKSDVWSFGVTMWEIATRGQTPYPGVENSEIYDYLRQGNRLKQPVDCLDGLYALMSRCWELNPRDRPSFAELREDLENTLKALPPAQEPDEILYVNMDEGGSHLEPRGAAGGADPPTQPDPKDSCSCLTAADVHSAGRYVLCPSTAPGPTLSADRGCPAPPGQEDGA
The experiment is described as follows: Inhibition of Axl in mouse BaF3 cells. The experiment is classed as cell-based.

In experiment [3] the test system is BaF3. Nature of the experiment: Ratio of IC50 for Mer in mouse BaF3 cells to IC50 for Axl in mouse BaF3 cells. The experiment is classed as cell-based.
For experiment [4], the species on record is Homo sapiens. The experiment is described as follows: Ratio of IC50 for Mer (unknown origin) to IC50 for Axl (unknown origin).
Experiment [5] concerns the target T3, Tyrosine-protein kinase Mer (Mus musculus, UniProt Q60805).
T3 sequence (Q60805 whole entry): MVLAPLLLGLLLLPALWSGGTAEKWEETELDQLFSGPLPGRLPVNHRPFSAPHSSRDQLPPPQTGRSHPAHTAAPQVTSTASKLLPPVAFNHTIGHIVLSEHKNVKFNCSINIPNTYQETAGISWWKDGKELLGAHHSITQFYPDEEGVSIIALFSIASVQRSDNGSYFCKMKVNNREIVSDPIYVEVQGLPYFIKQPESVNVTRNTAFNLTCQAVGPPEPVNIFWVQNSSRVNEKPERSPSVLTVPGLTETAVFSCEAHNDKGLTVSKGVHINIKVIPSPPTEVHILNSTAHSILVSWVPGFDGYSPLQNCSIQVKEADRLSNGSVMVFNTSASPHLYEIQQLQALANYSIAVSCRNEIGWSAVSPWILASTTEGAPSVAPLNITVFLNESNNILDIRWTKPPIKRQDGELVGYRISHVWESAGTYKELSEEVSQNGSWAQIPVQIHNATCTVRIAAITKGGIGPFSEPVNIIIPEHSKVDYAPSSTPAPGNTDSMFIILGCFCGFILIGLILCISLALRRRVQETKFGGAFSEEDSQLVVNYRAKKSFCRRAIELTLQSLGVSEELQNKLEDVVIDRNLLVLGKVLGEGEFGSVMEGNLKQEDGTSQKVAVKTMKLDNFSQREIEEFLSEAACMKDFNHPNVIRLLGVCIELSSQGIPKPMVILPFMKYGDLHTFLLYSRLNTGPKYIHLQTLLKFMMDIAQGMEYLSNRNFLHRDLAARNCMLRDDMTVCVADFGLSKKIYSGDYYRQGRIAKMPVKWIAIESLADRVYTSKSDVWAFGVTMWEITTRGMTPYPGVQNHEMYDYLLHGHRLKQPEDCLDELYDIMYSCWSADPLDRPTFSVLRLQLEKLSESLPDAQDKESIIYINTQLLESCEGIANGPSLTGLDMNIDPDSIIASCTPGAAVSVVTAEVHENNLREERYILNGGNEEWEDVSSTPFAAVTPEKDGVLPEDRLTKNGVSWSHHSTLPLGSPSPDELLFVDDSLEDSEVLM
The experiment is described as follows: Inhibition of Mer in mouse BaF3 cells. The experiment is classed as cell-based.

The target of experiment [6] is T4, Tyrosine-protein kinase receptor UFO (Homo sapiens, UniProt P30530).
T4 sequence (P30530 whole entry): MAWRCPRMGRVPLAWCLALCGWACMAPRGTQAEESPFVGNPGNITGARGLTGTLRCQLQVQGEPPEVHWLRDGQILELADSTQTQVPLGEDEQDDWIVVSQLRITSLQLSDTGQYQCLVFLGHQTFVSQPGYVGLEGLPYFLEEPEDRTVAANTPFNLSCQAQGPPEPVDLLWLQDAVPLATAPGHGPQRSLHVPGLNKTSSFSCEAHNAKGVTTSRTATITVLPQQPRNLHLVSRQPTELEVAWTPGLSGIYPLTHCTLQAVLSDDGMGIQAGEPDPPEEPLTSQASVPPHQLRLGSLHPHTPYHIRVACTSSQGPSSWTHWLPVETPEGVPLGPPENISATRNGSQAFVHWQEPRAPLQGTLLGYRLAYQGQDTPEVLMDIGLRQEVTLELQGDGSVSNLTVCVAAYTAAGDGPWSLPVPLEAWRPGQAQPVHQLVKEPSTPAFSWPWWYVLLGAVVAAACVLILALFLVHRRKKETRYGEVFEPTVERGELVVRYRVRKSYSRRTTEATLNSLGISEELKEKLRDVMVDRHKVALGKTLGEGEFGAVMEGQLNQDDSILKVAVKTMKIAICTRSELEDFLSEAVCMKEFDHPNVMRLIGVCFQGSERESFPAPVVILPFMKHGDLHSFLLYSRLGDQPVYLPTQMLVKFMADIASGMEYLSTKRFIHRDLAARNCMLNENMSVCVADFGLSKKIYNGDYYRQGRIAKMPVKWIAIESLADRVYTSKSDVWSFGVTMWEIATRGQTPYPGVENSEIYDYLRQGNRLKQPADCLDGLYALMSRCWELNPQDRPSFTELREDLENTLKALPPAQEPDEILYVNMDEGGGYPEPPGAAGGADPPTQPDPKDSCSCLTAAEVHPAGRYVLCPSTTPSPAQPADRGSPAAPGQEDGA
Nature of the experiment: Inhibition of Axl (unknown origin) by cell free assay.

Where only a bound is given, the exact number is not on record here.

A word on the IC50: it is the concentration that inhibits the measured activity by half.

For the molecule `CC(C)n1cc(C(=O)Nc2ccc(Oc3ncnc4c3CCN(C(=O)CC3CCN(C)CC3)C4)c(F)c2)c(=O)n(-c2ccc(F)cc2)c1=O`, the IC50 in experiment [1] was 88 nM; in experiment [2], 29 nM; in experiment [5], 150 nM; in experiment [6] it was 4.3 nM. The Ratio IC50 was determined as 5.2 in experiment [3] and 20 in experiment [4].
As for `CC(C)n1cc(C(=O)Nc2ccc(Oc3ncnc4c3CN(C)CC4)c(F)c2)c(=O)n(-c2ccc(F)cc2)c1=O`, the IC50 in experiment [1] was found to be 270 nM; in experiment [2], 150 nM; in experiment [5], 810 nM; in experiment [6] it was 64 nM. The Ratio IC50 in experiment [3] and in experiment [4] was 4.2 each time.
Consider `CC(C)n1cc(C(=O)Nc2ccc(Oc3ncnc4c3CN(C(=O)CN3CCOCC3)C4)c(F)c2)c(=O)n(-c2ccc(F)cc2)c1=O`, for which the IC50 in experiment [1] worked out at 230 nM; in experiment [2], 270 nM; in experiment [5], 730 nM; in experiment [6] it was 16 nM. For the same molecule, the Ratio IC50 in experiment [3] amounted to 2.7; in experiment [4], 14.
For `Cc1ccc(-n2c(=O)c(C(=O)Nc3ccc(Oc4ncnc5c4CCN(CC4CCN(C)CC4)C5)c(F)c3)cn(CC3CC3)c2=O)nc1`, the IC50 was 270 nM in experiment [1], 34 nM in experiment [2], 210 nM in experiment [5] and 5.3 nM in experiment [6]. Besides, the Ratio IC50 in experiment [3] amounted to 6.2; in experiment [4] it was 51.
Regarding `CN1CCC(CN2CCc3c(ncnc3Oc3ccc(NC(=O)c4cn(C5CC5)c(=O)n(-c5ccc(F)cc5)c4=O)cc3F)C2)CC1`, the IC50 in experiment [1] amounted to 830 nM; in experiment [2] it was 770 nM; in experiment [5], 4110 nM; in experiment [6], 32 nM. The Ratio IC50 in experiment [3] amounted to 5.3; in experiment [4], 26.
In the case of `CC(C)n1cc(C(=O)Nc2ccc(Oc3ncnc4c3CCN(CC3CN(C)C3)C4)c(F)c2)c(=O)n(-c2ccc(F)cc2)c1=O`, the IC50 is 77 nM in experiment [1], 22 nM in experiment [2], 92 nM in experiment [5] and 6.3 nM in experiment [6]. The Ratio IC50 in experiment [3] is 4.2; in experiment [4], 12.
For `CC(C)n1cc(C(=O)Nc2ccc(Oc3ncnc4c3CN(CC3CCN(C)CC3)C4)c(F)c2)c(=O)n(-c2ccc(F)cc2)c1=O`, the IC50 in experiment [1] is 69 nM; in experiment [2] it was 32 nM; in experiment [5] it was 80 nM; in experiment [6], 6.2 nM. The results for the Ratio IC50 in experiment [3] and in experiment [4] were 2.5 and 11, respectively.
`CC(C)n1cc(C(=O)Nc2ccc(Oc3ncnc4c3CCN(CC(=O)N3CCC3)C4)c(F)c2)c(=O)n(-c2ccc(F)cc2)c1=O`: the IC50 turned out to be 200 nM in experiment [1], 66 nM in experiment [2], 370 nM in experiment [5] and 14 nM in experiment [6]. Also, the Ratio IC50 is 5.6 in experiment [3] and 14 in experiment [4].
Consider `CC(C)n1cc(C(=O)Nc2ccc(Oc3ncnc4c3CCN(C(=O)CCN3CCCC3)C4)c(F)c2)c(=O)n(-c2ccc(F)cc2)c1=O`, for which the IC50 in experiment [1] was 240 nM; in experiment [2], 74 nM; in experiment [5] it was 290 nM; in experiment [6], 7.8 nM. The values for the Ratio IC50 in experiment [3] and in experiment [4] were 3.9 and 31, respectively.
Regarding `CC(C)n1cc(C(=O)Nc2ccc(Oc3ncnc4c3CCN(C(=O)C3CCN(C)CC3)C4)c(F)c2)c(=O)n(-c2ccc(F)cc2)c1=O`, the IC50 turned out to be 500 nM in experiment [1], 120 nM in experiment [2], 630 nM in experiment [5] and 12 nM in experiment [6]. Besides, the Ratio IC50 stood at 5.3 in experiment [3] and 42 in experiment [4].
For the molecule `CC(C)n1cc(C(=O)Nc2ccc(Oc3ncnc4c3CN(C)C4)c(F)c2)c(=O)n(-c2ccc(F)cc2)c1=O`, the IC50 in experiment [1] was more than 1000 nM; in experiment [2], 220 nM; in experiment [5], 2600 nM; in experiment [6] it was 22 nM. Besides, the Ratio IC50 in experiment [4] was more than 45.
Take `CC(C)n1cc(C(=O)Nc2ccc(Oc3ncnc4c3CCN(C)C4)c(F)c2)c(=O)n(-c2ccc(F)cc2)c1=O`: the IC50 in experiment [1] is 530 nM; in experiment [2], 110 nM; in experiment [5], 570 nM; in experiment [6], 6.6 nM. The Ratio IC50 in experiment [4] turned out to be 80.

The values are drawn from ChEMBL document CHEMBL4823291, “Discovery of 5,6,7,8-tetrahydropyrido[3,4-d]pyrimidine derivatives as novel selective Axl inhibitors” (Bioorg Med Chem Lett, 2021).
